# Active and inactive are the calls of the source.
# Experiments:
# [1] = viability of uninfected HEp-2 cells – cell-based, HTS, cytotoxicity control for RSV inhibitor project, dose response (AID 2410); type: functional; conditions: human respiratory syncytial virus
# [2] = Luminescence Cell-Based Dose Retest to Confirm Inhibitors of Cancer Stem Cells. [Related pubchem assays (depositor defined):AID2717, AID2721]; type: functional; conditions: Homo sapiens
# [3] = system: Streptococcus sp. 'group A'; test: Streptococcus pyogenes SK(-)GAS viability under kanamycin – luminescence, BacTiterGlo, confirmation, counter-screen for streptokinase expression inhibitor project, dose response (AID 1900); type: functional, organism-based
# Streptokinase A = molecular target: T1, Streptokinase A (Streptococcus pyogenes serotype M1, UniProt P10520); test: viability-normalized secreted streptokinase activity reduction – plasminogen activation absorbance, OD405, dose response (AID 1914); type: functional, Streptococcus pyogenes M1 GAS;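 further: secreted streptokinase activity via plasminogen activation per viability signal from cell pellet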
# T1 sequence (P10520 whole entry): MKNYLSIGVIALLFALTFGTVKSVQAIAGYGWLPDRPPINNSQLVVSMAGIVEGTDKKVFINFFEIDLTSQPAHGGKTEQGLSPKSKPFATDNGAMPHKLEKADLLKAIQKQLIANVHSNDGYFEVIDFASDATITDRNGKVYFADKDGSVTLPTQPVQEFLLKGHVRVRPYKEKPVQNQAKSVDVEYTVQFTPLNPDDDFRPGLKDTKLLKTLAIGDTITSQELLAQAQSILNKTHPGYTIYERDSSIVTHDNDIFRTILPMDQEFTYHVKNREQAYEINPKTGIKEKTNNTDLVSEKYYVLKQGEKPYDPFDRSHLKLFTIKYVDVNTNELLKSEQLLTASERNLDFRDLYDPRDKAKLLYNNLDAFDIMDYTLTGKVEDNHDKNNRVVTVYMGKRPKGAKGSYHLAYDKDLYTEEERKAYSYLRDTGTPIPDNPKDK
# Streptococcus = test: GAS UMAA2166 growth inhibition – luminescence, BacTiterGlo, counter-screen for streptokinase expression inhibitor project, dose response (AID 1915); type: functional, organism-based;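 further: potency for reduction of bacterial viability or growth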
# [4] = molecular target: Luciferin 4-monooxygenase (Photinus pyralis, UniProt P08659); test: inhibition of purified Photinus pyralis luciferase – biochemical, luminescence, dose response (AID 1891)
# [5] = Luminescence Cell-Based Dose Confirmation HTS to Identify Inhibitors of Platelet Dense Granule Release. [Related pubchem assays: 1663 (Primary HTS), 1678 (Summary of Project)]; type: functional
# cells [6] = type: functional, cell-based
# cells [7] = type: functional, cell-based; remark: listed apart in the source
# [8] = luciferase reporter signal suppression in cells – H4 neuroglioma cells, luminescence, dose response (AID 1990); type: functional, cell-based
# [9] = Luminescence Cell-Based Dose Response HTS to Identify Inhibitors of 5'UTR Stem-Loop Driven Prion Protein mRNA Translation in H4 Neuroglioblastoma Cells. [Related pubchem assays: 1827 (Project Summary), 1813 (Primary HTS)]; type: functional
# [10] = alpha-synuclein stem-loop luciferase translation blockers – H4 neuroglioma cells, luminescence, confirmation (AID 1988); type: functional, cell-based
# [11] = molecular target: T2, Replicative DNA helicase DnaB (Mycobacterium tuberculosis, UniProt P9WMR3); test: DnaB intein splicing inhibitors, dose response, biochemical, cell-free fluorescence (AID 449749); type: functional
# T2 sequence (P9WMR3 whole entry): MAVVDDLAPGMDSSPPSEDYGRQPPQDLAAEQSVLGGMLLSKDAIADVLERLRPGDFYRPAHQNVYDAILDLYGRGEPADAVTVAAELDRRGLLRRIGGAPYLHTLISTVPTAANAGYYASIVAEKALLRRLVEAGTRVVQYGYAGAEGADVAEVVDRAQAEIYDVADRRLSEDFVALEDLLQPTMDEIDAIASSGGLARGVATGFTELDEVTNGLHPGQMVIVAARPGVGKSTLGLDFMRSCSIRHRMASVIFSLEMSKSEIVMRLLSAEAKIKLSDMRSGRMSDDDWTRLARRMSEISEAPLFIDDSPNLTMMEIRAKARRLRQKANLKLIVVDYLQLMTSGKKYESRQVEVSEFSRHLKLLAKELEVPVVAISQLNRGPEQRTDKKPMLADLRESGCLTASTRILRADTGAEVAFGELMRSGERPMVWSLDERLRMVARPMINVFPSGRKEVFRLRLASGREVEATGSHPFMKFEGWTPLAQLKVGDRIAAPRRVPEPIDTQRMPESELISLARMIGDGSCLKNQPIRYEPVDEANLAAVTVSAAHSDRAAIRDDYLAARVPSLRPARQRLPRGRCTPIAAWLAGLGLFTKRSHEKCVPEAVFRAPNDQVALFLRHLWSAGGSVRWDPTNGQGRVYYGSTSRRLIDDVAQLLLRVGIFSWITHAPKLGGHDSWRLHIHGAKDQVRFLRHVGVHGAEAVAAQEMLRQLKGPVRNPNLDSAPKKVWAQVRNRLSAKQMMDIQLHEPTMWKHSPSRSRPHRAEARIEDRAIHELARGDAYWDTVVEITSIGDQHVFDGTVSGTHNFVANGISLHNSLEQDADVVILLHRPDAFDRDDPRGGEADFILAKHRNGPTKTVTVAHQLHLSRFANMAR
# Protein RecA = molecular target: T3, Protein RecA (Mycobacterium tuberculosis, UniProt P9WHJ3); test: Fluorescence Cell-Free Homogeneous Dose Retest to Identify Inhibitors of RecA-Intein Splicing Activity. [Related pubchem assays (depositor defined):AID2097, AID2223, AID489010, AID492950]; type: functional
# T3 sequence (P9WHJ3 whole entry): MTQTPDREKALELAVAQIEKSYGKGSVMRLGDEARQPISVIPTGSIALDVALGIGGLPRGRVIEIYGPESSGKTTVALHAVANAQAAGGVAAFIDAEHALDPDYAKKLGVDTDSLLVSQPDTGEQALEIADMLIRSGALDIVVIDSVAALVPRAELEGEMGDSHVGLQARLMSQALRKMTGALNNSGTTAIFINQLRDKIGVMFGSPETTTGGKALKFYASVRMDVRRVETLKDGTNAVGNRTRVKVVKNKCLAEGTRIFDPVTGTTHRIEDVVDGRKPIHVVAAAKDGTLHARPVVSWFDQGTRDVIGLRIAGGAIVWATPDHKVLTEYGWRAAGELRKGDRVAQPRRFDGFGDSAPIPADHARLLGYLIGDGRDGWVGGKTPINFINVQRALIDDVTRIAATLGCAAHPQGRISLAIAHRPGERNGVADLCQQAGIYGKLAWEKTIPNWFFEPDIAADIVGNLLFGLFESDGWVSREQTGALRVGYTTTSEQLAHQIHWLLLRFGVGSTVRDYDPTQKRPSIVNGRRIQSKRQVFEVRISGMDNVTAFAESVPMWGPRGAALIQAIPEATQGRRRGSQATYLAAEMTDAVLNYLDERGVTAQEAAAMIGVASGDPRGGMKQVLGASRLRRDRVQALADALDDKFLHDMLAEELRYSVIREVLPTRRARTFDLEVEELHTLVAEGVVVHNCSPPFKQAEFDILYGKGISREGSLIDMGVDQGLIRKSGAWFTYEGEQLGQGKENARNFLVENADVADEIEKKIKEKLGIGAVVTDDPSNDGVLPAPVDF
# Cytochrome P450 2C19 = Cytochrome P450 2C19 (Homo sapiens, UniProt P33261); test: Cytochrome panel assay with activity outcomes. Panel member name: p450-cyp2c19 Compounds with AC50 equal or less than 10 uM are considered active; type: functional; conditions: read-out: AC50
# Cytochrome P450 2D6 = Cytochrome P450 2D6 (Homo sapiens, UniProt P10635);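 further: CYP2D6 member of a cytochrome P450 panel assay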
# Cytochrome P450 2C9 = Cytochrome P450 2C9 (Homo sapiens, UniProt P11712)
# [12] = Trypanosoma cruzi growth suppression in host cells – NIH3T3 host cells, beta-gal luminescence, confirmation (AID 2044); type: functional, cell-based;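 further: intracellular parasites grown in NIH/3T3 mouse fibroblasts as host cells; luminescent beta-galactosidase reporter signal from transgenic T. cruzi replicating inside host cells; inhibitors lower the luminescence signal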
# [13] = NIH3T3 cell viability loss – ATP luminescence, mouse fibroblasts, counter-screen, dose response (AID 2010); type: functional, cell-based;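 further: cells exposed to compound for about 90 hours before reading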
# Sequence of Luciferin 4-monooxygenase (P08659 whole entry): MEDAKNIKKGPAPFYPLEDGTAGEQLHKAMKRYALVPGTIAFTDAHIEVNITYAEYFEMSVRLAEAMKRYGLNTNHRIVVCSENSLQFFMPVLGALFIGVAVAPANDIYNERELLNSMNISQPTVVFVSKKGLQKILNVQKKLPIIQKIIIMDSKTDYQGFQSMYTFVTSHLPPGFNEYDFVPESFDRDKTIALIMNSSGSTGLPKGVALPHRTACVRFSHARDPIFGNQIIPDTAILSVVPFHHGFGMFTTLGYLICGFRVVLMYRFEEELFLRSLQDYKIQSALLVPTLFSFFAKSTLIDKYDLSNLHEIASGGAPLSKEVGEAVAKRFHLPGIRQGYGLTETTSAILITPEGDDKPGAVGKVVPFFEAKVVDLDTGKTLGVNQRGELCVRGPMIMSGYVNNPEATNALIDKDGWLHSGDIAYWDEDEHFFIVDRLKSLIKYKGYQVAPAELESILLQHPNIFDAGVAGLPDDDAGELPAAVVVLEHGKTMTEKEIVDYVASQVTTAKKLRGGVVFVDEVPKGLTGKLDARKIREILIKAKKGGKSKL
# Sequence of Cytochrome P450 2D6 (P10635 whole entry): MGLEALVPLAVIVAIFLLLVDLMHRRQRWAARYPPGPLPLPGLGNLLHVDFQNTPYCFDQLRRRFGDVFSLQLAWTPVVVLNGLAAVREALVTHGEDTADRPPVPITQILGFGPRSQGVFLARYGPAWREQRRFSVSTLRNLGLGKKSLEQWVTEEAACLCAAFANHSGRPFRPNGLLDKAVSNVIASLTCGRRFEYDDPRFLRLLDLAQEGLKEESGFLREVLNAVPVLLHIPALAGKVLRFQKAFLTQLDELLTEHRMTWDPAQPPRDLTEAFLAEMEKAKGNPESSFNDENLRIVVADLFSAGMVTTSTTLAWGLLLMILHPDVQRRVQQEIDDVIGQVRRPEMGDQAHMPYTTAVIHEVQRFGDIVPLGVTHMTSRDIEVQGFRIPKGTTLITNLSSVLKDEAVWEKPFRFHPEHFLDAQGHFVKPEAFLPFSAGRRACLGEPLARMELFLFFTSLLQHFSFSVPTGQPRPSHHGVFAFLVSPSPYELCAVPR
# Sequence of Cytochrome P450 2C19 (P33261 whole entry): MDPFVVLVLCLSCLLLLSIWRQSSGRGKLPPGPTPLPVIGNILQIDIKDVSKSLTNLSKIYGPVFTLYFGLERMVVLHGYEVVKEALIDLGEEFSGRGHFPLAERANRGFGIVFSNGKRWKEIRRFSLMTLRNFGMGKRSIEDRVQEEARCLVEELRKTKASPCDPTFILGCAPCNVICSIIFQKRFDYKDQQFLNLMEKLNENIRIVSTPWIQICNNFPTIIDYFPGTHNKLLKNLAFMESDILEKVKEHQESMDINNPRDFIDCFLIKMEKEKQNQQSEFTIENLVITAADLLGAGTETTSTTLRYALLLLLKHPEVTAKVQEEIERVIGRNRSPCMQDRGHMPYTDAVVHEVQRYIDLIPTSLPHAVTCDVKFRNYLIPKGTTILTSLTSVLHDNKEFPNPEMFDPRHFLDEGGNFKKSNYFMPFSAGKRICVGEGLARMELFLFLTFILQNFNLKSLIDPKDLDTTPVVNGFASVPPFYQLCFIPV
# Sequence of Cytochrome P450 2C9 (P11712 whole entry): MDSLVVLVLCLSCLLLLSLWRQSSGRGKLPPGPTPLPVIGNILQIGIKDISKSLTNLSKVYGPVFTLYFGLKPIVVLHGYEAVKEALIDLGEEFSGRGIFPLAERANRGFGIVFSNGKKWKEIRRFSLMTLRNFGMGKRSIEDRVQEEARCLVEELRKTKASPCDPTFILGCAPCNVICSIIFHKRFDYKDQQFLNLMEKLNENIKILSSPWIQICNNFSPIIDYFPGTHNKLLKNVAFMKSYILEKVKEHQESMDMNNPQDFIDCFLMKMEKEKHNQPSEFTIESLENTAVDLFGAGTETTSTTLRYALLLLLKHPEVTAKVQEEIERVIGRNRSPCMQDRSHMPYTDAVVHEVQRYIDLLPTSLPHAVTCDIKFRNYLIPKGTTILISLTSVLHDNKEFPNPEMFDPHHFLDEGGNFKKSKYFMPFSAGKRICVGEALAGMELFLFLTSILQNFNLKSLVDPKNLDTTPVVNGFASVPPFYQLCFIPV
smiles,measurement,setting,value
COCCNC(=O)Nc1ccc2nc(-c3cccs3)c(-c3cccs3)nc2c1,CC50,[1],33.1 µM (active)
CC(C)CC(=O)Nc1cccc(-c2csc(-c3ccccc3)n2)c1,CC50,[1],17.9 µM (active)
C=CCOc1cccc(/C=C2\C(=O)N(Cc3ccc(C)cc3)C(C)=C2C(=O)OC)c1,CC50,[1],29.7 µM (active)
same,AC50,[2],5.38 µM (active)
CCn1c(=O)c(C(=O)NNC(=O)Cc2ccccc2)c(O)c2ccccc21,EC50,[3],9.03 µM (active)
same,EC50,Streptokinase A,> 150 µM (not active)
same,EC50,Streptococcus,> 150 µM (not active)
Cc1ccc2c(CSc3nc4ccccc4c(=O)n3CCCO)cc(=O)oc2c1C,CC50,[1],30.5 µM (active)
Cc1c(N=C2N=C(NC(=O)c3cccs3)c3ccccc32)c(=O)n(-c2ccccc2)n1C,CC50,[1],18.7 µM (active)
N=C(NOC(=O)c1ccc(Cl)cc1)c1ccccn1,CC50,[1],16.4 µM (active)
same,EC50,[4],1.53 µM (active)
same,EC50,[5],7.38 µM (active)
O=C(N/N=C/c1ccccn1)c1ccc(Br)cc1,EC50,cells [6],15.2 µM (active)
same,EC50,cells [7],> 350 µM (not active)
Cn1c(SCC(=O)NC2(C#N)CCCCC2)nnc1-c1cccnc1,EC50,[3],> 150 µM (not active)
same,EC50,Streptokinase A,> 150 µM (not active)
same,EC50,Streptococcus,> 150 µM (not active)
COc1ccc2c(c1)CCc1cnc(N)nc1-2,CC50,[1],24.4 µM (active)
C1CCC2(CC1)C1=C(CCCC1)Nc1nnnn12,EC50,cells [6],> 350 µM (not active)
same,EC50,cells [7],> 350 µM (not active)
CCOC(=O)CNC(=O)CSc1nnc(Cn2cnc3ccccc32)n1C,EC50,cells [6],> 350 µM (not active)
same,EC50,cells [7],> 350 µM (not active)
Cc1ccc(CNC(=O)C2CCN(S(=O)(=O)c3ccc4c(c3)CC(C)N4C(=O)C3CCC3)CC2)o1 (configuration not stated),EC50,[8],13 µM (active)
same,EC50,[9],> 120 µM (not active)
same,EC50,[10],12.3 µM (active)
Cc1cc(C)n(-c2nc3ccccc3c(=O)n2OCC(=O)OCc2ccccc2)n1,EC50,[8],19.3 µM (active)
same,EC50,[9],17.6 µM (active)
same,EC50,[10],> 120 µM (not active)
Cc1ccc2c(c1)-c1c(ssc1=S)C(C)(C)N2C(=O)CSc1nncn1C,EC50,[8],46.1 µM (active)
same,EC50,[9],> 120 µM (not active)
same,EC50,[10],> 120 µM (not active)
same,AC50,[11],6.63 µM (active)
same,EC50,Protein RecA,9.47 µM (active)
CCOC(=O)N1CCC(/N=c2/c(-c3ccccc3)c(O)c2=O)CC1,EC50,cells [6],> 350 µM (not active)
same,EC50,cells [7],> 350 µM (not active)
Cc1cc(C)c2nc(SCCc3ccccc3)nc(C)c2c1,EC50,[3],33.4 µM (active)
same,EC50,Streptokinase A,12.5 µM (active)
same,EC50,Streptococcus,> 150 µM (not active)
O=C1CSCN1c1ccc(Cl)cc1,EC50,cells [6],> 350 µM (not active)
same,EC50,cells [7],> 350 µM (not active)
Cc1ccc(/C=C/C(=O)c2nc3ccccc3[nH]2)cc1,CC50,[1],46.1 µM (active)
same,AC50,Cytochrome P450 2C19,0.0158 µM (inconclusive)
same,AC50,Cytochrome P450 2D6,28.2 µM (inconclusive)
same,AC50,Cytochrome P450 2C9,7.94 µM (inconclusive)
O=C(c1cccs1)N1N=C(c2ccccc2)CC1c1ccccc1 (configuration not stated),EC50,[3],6.85 µM (active)
same,EC50,Streptokinase A,> 150 µM (not active)
same,EC50,Streptococcus,16.2 µM (active)
CCOC(=O)C1=C(CN2CCN(C(=O)c3ccco3)CC2)NC(=O)NC1c1ccccc1 (configuration not stated),EC50,[8],42.2 µM (active)
same,EC50,[9],> 120 µM (not active)
same,EC50,[10],> 120 µM (not active)
CC(C)c1ccc(NC(=O)C2CCCN(S(=O)(=O)c3ccc4c(c3)C(C)(C)C(=O)N4C)C2)cc1 (configuration not stated),CC50,[1],17.6 µM (active)
CC(=O)c1ccc(NC2CC(O)C(O)CO2)cc1 (configuration not stated),EC50,[8],> 120 µM (not active)
same,EC50,[9],> 120 µM (not active)
same,EC50,[10],16.1 µM (active)
CCCCOC(=O)c1ccc(NC(=S)N2CCN(c3ncc4c(=O)c(C(=O)O)cn(CC)c4n3)CC2)cc1,EC50,[3],0.801 µM (active)
same,EC50,Streptokinase A,> 150 µM (not active)
same,EC50,Streptococcus,2.62 µM (active)
Cc1ccc(CN=C(N)Nc2nc(C)cc(C)n2)cc1,EC50,[8],> 120 µM (not active)
same,EC50,[9],9.36 µM (active)
same,EC50,[10],7.78 µM (active)
Cc1ccc(C#CC[N+](C)(C)CC#Cc2ccccc2)cc1,EC50,[8],> 120 µM (not active)
same,EC50,[9],> 120 µM (not active)
same,EC50,[10],> 120 µM (not active)
same,EC50,[12],1.92 µM (active)
same,EC50,[13],> 60 µM (not active)
CC1CCCC(C)N1C(=O)COC(=O)CNC(=O)c1sc2ccccc2c1Cl (configuration not stated),EC50,[4],> 112 µM (not active)
same,EC50,[5],> 112 µM (not active)

# — ChEMBL document CHEMBL1201862, “PubChem BioAssay data set” (2004)
